Our source for the EC30 values is patent publication US10758534B2 (Vertex Pharmaceuticals Incorporated, priority 2014, dated 2020).

For this experiment, the target named is T1, F508del (Homo sapiens, UniProt P13569, DEL508-508).
T1 construct: expressed in transfected cells
In words: Protocol 1: membrane potential optical assay (FLIPR III, voltage sensing dye), identification of potentiator compounds. Format: cell-based. The settings on record: Table 3, compounds of Table 1. The method in brief:
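Membrane potential in forskolin-activated, temperature-rescued F508del NIH 3T3 cells is followed with a voltage-sensing dye on FLIPR III. A chloride ion gradient created at the single addition step provides the driving force, after prior compound treatment.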

T1 sequence (P13569 with tags, fused parts or gaps DEL508-508): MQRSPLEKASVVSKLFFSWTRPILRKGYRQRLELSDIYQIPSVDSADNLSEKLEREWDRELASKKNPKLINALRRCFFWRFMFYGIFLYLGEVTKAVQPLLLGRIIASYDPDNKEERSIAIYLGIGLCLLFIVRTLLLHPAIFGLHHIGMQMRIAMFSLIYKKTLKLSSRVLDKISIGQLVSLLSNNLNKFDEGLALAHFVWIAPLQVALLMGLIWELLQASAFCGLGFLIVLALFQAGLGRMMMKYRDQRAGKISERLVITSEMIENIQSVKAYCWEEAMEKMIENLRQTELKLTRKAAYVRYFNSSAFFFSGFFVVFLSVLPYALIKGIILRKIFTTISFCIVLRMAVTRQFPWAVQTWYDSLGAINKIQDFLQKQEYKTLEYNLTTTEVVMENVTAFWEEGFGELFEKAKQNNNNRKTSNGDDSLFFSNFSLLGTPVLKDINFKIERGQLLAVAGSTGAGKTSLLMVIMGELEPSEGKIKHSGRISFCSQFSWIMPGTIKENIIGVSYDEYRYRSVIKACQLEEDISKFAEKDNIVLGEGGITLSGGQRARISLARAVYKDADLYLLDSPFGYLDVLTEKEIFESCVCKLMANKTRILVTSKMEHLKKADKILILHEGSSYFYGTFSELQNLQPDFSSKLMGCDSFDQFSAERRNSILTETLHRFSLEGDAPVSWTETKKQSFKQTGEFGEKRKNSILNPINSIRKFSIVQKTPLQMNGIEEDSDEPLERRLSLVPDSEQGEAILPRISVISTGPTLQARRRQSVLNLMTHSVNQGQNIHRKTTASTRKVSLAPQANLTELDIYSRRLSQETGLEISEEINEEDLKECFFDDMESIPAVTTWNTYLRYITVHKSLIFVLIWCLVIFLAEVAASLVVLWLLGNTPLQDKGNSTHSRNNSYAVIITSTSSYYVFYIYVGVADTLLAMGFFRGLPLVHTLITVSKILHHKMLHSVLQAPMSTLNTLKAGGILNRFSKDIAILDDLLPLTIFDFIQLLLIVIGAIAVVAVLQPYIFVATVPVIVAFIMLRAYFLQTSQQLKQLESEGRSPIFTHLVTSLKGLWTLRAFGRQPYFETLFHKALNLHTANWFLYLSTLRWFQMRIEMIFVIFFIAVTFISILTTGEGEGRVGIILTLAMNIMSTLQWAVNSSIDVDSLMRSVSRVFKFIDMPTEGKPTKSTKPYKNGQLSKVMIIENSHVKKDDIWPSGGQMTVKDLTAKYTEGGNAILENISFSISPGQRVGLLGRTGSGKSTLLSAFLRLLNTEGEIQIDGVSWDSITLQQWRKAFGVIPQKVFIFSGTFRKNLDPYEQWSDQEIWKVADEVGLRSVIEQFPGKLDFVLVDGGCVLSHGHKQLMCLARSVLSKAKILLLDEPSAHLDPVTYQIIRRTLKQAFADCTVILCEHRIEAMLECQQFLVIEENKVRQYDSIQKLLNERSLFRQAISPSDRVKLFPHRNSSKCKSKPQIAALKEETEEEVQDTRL

For the compound `CC(C)COc1cc(F)cc(-c2ccc(C(=O)NS(=O)(=O)c3cccc(N)n3)c(OC3CCC3C3CC3)n2)c1` (centres unmarked) [Compound 1530, N-[(6-amino-2-pyridyl)sulfonyl]-2-(2-cyclopropylcyclobutoxy)-6-(3-fluoro-5-isobutoxy-phenyl)pyridine-3-carboxamide], the EC30 result is recorded as “+++ (“+++” means <3 uM)”.
To `Cc1cc(C)c(Oc2nc(-c3ccc(O)cc3)ccc2C(=O)NS(=O)(=O)c2cccc(N)n2)c(C)c1` [Compound 1344, N-[(6-amino-2-pyridyl)sulfo]-6-(4-hydroxyphenyl)-2-(2,4,6-trimethylphenoxy)pyridine-3-carboxamide] belongs “++ (“++” means between 3 uM and 10 uM)”; to `Cc1ccc(-c2ccc(C(=O)NS(=O)(=O)c3ccc[nH]c3=O)c(Oc3ccc(C)cc3C)n2)cc1` [Compound 1129, 2-(2,4-dimethylphenoxy)-N-[(2-oxo-1H-pyridin-3-yl)sulfonyl]-6-(p-tolyl)pyridine-3-carboxamide], “++ (“++” means between 3 uM and 10 uM)”; to `Cc1cc(C)c(Oc2cc(-c3cc(F)cc(OCC(C)C)c3)cnc2C(=O)NS(=O)(=O)c2cccc(N)n2)c(C)c1` [Compound 1456, N-[(6-amino-2-pyridyl)sulfonyl]-5-(3-fluoro-5-isobutoxy-phenyl)-3-(2,4,6-trimethylphenoxy)pyridine-2-carboxamide], “+++ (“+++” means <3 uM)”.
With `Cc1cc(OC(C)C)cc(-c2ccc(C(=O)NS(=O)(=O)c3cccc(N)n3)c(N3C[C@@H](C)CC3(C)C)n2)c1` [Compound 1671, N-[(6-amino-2-pyridyl)sulfonyl]-6-(3-isopropoxy-5-methyl-phenyl)-2-[(4S)-2,2,4-trimethylpyrrolidin-1-yl]pyridine-3-carboxamide], the EC30 result is “+++ (“+++” means <3 uM)”.
To `CC1CCN(c2nc(-c3cc(F)cc(OC(C)C)c3)ccc2C(=O)NS(=O)(=O)c2cc[nH]n2)CC1` [Compound 1042, 6-(3-fluoro-5-isopropoxy-phenyl)-2-(4-methyl-1-piperidyl)-N-(1H-pyrazol-3-ylsulfonyl)pyridine-3-carboxamide] belongs “+++ (“+++” means <3 uM)”; to `Cc1cc(C)c(Oc2nc(C(C)(C)C)ccc2C(=O)NS(=O)(=O)c2csc(N)n2)c(C)c1` [Compound 1294, N-(2-aminothiazol-4-yl)sulfonyl-6-tert-butyl-2-(2,4,6-trimethylphenoxy)pyridine-3-carboxamide], “+++ (“+++” means <3 uM)”; to `COc1cc(-c2ccc(C(=O)NS(=O)(=O)c3cccc(N)n3)c(Oc3c(C)cc(C)cc3C)n2)ccc1F` [Compound 919, N-[(6-amino-2-pyridyl)sulfonyl]-6-(4-fluoro-3-methoxy-phenyl)-2-(2,4,6-trimethylphenoxy)pyridine-3-carboxamide], “+++ (“+++” means <3 uM)”.
Under `CC(Cc1ccccc1)Oc1nc(C(C)(C)C)ccc1C(=O)NS(=O)(=O)c1cccc(N)n1` (centres unmarked) [Compound 1314, N-[(6-amino-2-pyridyl)sulfonyl]-6-tert-butyl-2-(1-methyl-2-phenyl-ethoxy)pyridine-3-carboxamide] stands “+++ (“+++” means <3 uM)”; under `Cc1cc(C)c(Oc2nc(-c3ccc(OCC(C)C)cc3)ccc2C(=O)NS(=O)(=O)c2ccc[nH]c2=O)c(C)c1` [Compound 1079, 6-(4-isobutoxyphenyl)-N-[(2-oxo-1H-pyridin-3-yl)sulfonyl]-2-(2,4,6-trimethylphenoxy)pyridine-3-carboxamide], “+++ (“+++” means <3 uM)”; under `Cc1cc(C)c(Oc2nc(C3CCC(C(F)(F)F)CC3)ccc2C(=O)NS(=O)(=O)c2cccc(N)n2)c(C)c1` (centres unmarked) [Compound 1519, N-[(6-amino-2-pyridyl)sulfonyl]-6-[4-(trifluoromethyl)cyclohexyl]-2-(2,4,6-trimethylphenoxy)pyridine-3-carboxamide], “+++ (“+++” means <3 uM)”.
